Reference: ChEMBL document CHEMBL1221332, “[3-azabicyclo[3.1.0]hex-1-yl]phenyl-benzenesulfonamides as selective dopamine D3 antagonists” (Bioorg Med Chem Lett, 2010)

Key:
D(2) dopamine receptor = D(2) dopamine receptor (Homo sapiens, UniProt P14416)
Description: Antagonist activity at dopamine D2 receptor by GTPgammaS binding assay

[1] = molecular target: Voltage-gated inwardly rectifying potassium channel KCNH2 (Homo sapiens, UniProt Q12809)
D(3) dopamine receptor = D(3) dopamine receptor (Homo sapiens, UniProt P35462); assay: Antagonist activity at dopamine D3 receptor by GTPgammaS binding assay; assay type: functional
Sequence of D(3) dopamine receptor (P35462 whole entry): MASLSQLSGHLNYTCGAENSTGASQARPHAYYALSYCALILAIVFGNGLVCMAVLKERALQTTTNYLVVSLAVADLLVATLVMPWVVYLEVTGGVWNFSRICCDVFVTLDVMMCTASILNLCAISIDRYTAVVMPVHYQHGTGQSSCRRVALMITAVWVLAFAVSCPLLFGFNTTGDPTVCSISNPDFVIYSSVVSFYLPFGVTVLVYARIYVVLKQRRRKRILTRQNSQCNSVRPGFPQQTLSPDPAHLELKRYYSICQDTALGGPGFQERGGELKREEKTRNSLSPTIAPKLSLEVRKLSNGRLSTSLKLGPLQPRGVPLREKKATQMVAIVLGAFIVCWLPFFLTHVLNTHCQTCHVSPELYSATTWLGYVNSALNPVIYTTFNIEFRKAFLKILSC

[2] = Ratio of drug level in brain to plasma in rat; assay type: ADME

Sequence of D(2) dopamine receptor (P14416 whole entry): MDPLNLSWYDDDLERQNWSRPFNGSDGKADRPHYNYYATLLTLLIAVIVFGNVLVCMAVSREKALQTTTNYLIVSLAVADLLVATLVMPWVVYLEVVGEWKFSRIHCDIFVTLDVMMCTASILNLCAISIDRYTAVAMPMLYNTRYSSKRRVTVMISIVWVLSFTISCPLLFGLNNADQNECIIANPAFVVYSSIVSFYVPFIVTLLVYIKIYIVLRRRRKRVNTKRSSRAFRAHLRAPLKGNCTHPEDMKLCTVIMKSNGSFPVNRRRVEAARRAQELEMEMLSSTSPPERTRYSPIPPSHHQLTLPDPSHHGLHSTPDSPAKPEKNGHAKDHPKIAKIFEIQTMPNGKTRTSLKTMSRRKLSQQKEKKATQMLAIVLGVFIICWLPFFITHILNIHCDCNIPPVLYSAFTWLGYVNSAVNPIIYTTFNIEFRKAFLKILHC
Sequence of Voltage-gated inwardly rectifying potassium channel KCNH2 (Q12809 whole entry): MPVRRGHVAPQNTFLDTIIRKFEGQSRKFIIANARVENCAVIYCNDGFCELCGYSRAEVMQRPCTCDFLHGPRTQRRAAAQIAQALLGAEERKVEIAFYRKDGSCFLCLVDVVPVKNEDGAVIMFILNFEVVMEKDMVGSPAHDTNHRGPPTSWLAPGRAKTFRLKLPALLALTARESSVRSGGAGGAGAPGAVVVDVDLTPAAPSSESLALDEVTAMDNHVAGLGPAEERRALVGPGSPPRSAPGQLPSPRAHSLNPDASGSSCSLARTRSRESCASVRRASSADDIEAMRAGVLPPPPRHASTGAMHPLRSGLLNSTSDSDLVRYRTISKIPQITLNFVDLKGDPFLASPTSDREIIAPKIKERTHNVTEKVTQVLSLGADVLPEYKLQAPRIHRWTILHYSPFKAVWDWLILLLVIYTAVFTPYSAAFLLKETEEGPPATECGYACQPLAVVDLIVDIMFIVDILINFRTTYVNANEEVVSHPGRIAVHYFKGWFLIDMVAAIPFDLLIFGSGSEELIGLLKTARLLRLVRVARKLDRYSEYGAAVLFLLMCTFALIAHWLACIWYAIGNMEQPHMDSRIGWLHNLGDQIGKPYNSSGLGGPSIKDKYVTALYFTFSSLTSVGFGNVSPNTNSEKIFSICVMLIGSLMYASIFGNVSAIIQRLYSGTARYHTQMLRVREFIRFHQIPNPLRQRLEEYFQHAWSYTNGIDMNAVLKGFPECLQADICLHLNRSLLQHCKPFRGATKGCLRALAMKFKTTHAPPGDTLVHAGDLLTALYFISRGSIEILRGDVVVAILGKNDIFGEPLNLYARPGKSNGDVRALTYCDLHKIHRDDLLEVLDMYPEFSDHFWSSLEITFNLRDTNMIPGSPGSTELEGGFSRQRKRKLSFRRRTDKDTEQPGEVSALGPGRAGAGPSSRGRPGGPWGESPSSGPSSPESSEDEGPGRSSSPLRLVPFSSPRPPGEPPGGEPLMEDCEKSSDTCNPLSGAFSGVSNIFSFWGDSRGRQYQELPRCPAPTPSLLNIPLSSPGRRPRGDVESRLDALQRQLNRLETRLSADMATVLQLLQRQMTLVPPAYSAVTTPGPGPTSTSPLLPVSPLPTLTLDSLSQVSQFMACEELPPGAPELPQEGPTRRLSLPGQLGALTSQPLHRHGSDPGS

| SMILES | Ki (D(2) dopamine receptor) [nM] | IC50 [1] [nM] | Ki (D(3) dopamine receptor) [nM] | Kp [2] |
| --- | --- | --- | --- | --- |
| CC(C)c1ccc(S(=O)(=O)Cc2ccc([C@]34CNC[C@H]3C4)cc2)cc1 | 316 | 1260 | 25.1 |  |
| CN(c1ccc([C@]23CNC[C@H]2C3)cc1)S(=O)(=O)c1ccccc1 | 501 | > 63100 | 79.4 |  |
| CC(C)c1ccc(CS(=O)(=O)c2ccc([C@]34CNC[C@H]3C4)cc2)cc1 | > 3160 | 3160 | 25.1 |  |
| CCCCc1ccc(S(=O)(=O)Nc2ccc([C@]34CNC[C@H]3C4)cc2)cc1 | 126 |  | 5.01 |  |
| CCC(C)(C)c1ccc(S(=O)(=O)Nc2ccc([C@]34CNC[C@H]3C4)cc2)cc1 | 50.1 |  | 6.31 |  |
| CC(C)c1ccc(S(=O)(=O)Nc2ccc([C@@]34C[C@@H]3CN(C)C4)cc2)cc1 | 63.1 | 1580 | 6.31 | 7.3 |
| CCN1C[C@H]2C[C@@]2(c2ccc(NS(=O)(=O)c3ccc(C(C)C)cc3)cc2)C1 | 100 | 1260 | 7.94 |  |
| C=CCN1C[C@H]2C[C@@]2(c2ccc(NS(=O)(=O)c3ccc(C(C)C)cc3)cc2)C1 | 63.1 | 100 | 2.51 |  |
| COc1cc([C@]23CNC[C@H]2C3)ccc1NS(=O)(=O)c1ccc(C(C)C)cc1 | 50.1 |  |  |  |
| O=S(=O)(Nc1ccc([C@]23CNC[C@H]2C3)cc1)c1ccc(C(F)(F)F)cc1 | > 3160 | 794 | 251 |  |
| O=S(=O)(Nc1ccc([C@]23CNC[C@H]2C3)cc1)c1ccc(OC(F)(F)F)cc1 | 1000 | 10000 | 631 |  |
| CC(C)c1ccc(S(=O)(=O)Nc2ccc([C@]34CNC[C@H]3C4)cc2)cc1 (racemic) |  | 1000 | 2.51 |  |
| CC(C)c1ccc(S(=O)(=O)Nc2ccc(C34CNCC3C4)cc2)cc1 (single isomer, unassigned; enantiomer 1) |  | 5010 | 3.98 |  |
| CC(C)c1ccc(S(=O)(=O)Nc2ccc(C34CNCC3C4)cc2)cc1 (single isomer, unassigned; enantiomer 2) |  | 1580 | 200 |  |
